# Source: patent publication US20090137612A1, “Treatment with combined use of oxypurines and ascorbate to prevent and mitigate iron-catalized oxidative damage in Alzheimer's disease and other neurodegenerative disorders” (priority 2007, published 2009)
# Columns and labels:
# [1] = Inhibition of o-dianisidine oxidation induced by reaction of ferrous sulfate with hydrogen peroxide (colorimetric, 460 nm); assay type: biochemical
# Experimental: (§1) All chemicals used in the following first 4 EXAMPLES for this invention were of analytical quality. A colorimeter was used to detect peroxidations of o-dianisidine, 9 mg/dL, as chromogenic hydrogen donor when oxidized, with its absorbance measured at 460 nm in saline solutions (140 mM NaCl, buffered by 3 mM phosphate salts at pH 7.4). Ferrous sulfate or human hemoglobin was added to control and to test solutions containing uric acid or ascorbic acid shortly before the addition of hydrogen peroxide, with oxidized molecules of dianisidine measured promptly. The saline solutions were mimetic of cerebrospinal fluid except devoid of possible confounding other molecules.
# Uric Acid Inhibition of Substrate Oxidations Induced by Reaction of Ferrous Sulfate (9.8 Micromolar) with 20 Micromolar Hydrogen Peroxide
# Comment: All incubations were done at 25-28° Celsius.
# Ascorbic Acid Inhibition at 1.6 mg/dl of Substrate Oxidation Induced by Reaction of Ferrous Sulfate (9.8 Micromolar) with 20 Micromolar Hydrogen Peroxide
# [2] = molecular target: human hemoglobin (Homo sapiens, UniProt P68871+P69905); assay: Inhibition of o-dianisidine oxidation by human hemoglobin in reaction with hydrogen peroxide (colorimetric, 460 nm); assay type: biochemical; details: hemoglobin 12 mg/dl, 20 micromolar H2O2
# Experimental: as §1
# Uric Acid Inhibition of Substrate Oxidation by Human Hemoglobin Level of 12 mg/dl in Reaction with 20 Micromolar Hydrogen Peroxide
# Ascorbic Acid Inhibition at 1.6 mg/dl of Substrate Oxidation Induced by Human Hemoglobin Level of 12 mg//dl in Reaction with 20 Micromolar Hydrogen Peroxide
# Comments: The inhibition remained virtually complete in EXAMPLE 4 at 10 minutes of continued exposure to the hydrogen peroxide, in spite of greater absorbance increase or oxidation in the control solutions from continuing reaction of the peroxide with the iron that resided in the hemoglobin. […] He used higher concentrations of hemoglobin and hydrogen peroxide (e.g. 0.67 or 0.8 mM of hydrogen peroxide) in phosphate-saline buffer with 2 hour incubations at 37° C.
# [3] = known in the art, in words; cited from earlier work
# [4] = cited from earlier work; for elevating human serum uric acid levels when given orally: humans (normal adults and gouty individuals), literature
# [5] = intravenously, healthy humans; Chamorro A et al., 2004; cited from earlier work
# [6] = Ascorbate 1.6 mg/dL, 5 min. after H2O2, n = 4
# [7] = Ascorbate 1.6 mg/dL, 10 min. after H2O2, n = 4
# [8] = Urate 0.5 mg/dL, 5 min. after H2O2, n 4
# [9] = Urate 0.5 mg/dL, 10 min. after H2O2, n 4
# [10] = Urate 6.0 mg/dL, 10 min. after H2O2, n 4
# human hemoglobin, sequence (P69905 2-142 limits assumed): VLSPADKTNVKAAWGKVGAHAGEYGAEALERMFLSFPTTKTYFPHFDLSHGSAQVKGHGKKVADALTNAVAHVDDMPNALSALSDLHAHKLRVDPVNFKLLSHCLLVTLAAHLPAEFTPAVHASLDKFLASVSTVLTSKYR
# human hemoglobin, sequence (P68871 2-147 limits assumed): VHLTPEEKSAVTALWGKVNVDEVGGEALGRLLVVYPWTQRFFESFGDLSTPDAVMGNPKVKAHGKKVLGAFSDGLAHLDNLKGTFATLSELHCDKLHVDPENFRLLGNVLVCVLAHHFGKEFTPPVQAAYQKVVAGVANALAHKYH
smiles,measurement,setting,value
"O=C1O[C@H]([C@@H](O)CO)C(O)=C1O [Ascorbate, L-ascorbic acid]",Absorbance Increase,"[1]; Ascorbate 1.6 mg/dL, 5 min. after H2O2, mean ± s.e.m., n = 4",0.000 ± 0.000
same,% Inhibition,[1]; [6],100.0 ± 0.0 %
same,% Inhibition,[1]; [7],100.0 ± 0.0 %
same,Absorbance Increase,[1]; [7],0.000 ± 0.000
same,% Inhibition,[2]; [6],100.0 ± 0.0 %
same,Absorbance Increase,[2]; [6],0.000 ± 0.000
same,% Inhibition,[2]; [7],99.8 ± 1.2 %
same,Absorbance Increase,[2]; [7],0.001 ± 0.008
O=c1[nH]c(=O)c2[nH]cnc2[nH]1 [xanthine],solubility in water,[3],difficulty soluble in water
same,elevating human serum uric acid levels when given orally,[4],not
O=c1[nH]cnc2nc[nH]c12 [hypoxanthine],solubility in water,[3],more soluble in water
same,raise of serum or plasma uric acid level,"[4]; about 0.9 gram given orally (0.1 mmole/kg), persons of near 70 kg, Clifford A J et al., 1976",about 2.4 mg/dL
same,elevating human serum uric acid levels when given orally,[4],effectively raise serum uric acid levels
"O=c1[nH]c(=O)c2[nH]c(=O)[nH]c2[nH]1 [Urate, 2,6,8-oxypurine]",Absorbance Increase,"[1]; Urate 0.5 mg/dL, 5 min. after H2O2, 460 nm, mean ± s.e.m., n 5",0.030 ± 0.003
same,% Inhibition,"[1]; Urate 0.5 mg/dL, 5 min. after H2O2, mean ± s.e.m., n 5",36.8 ± 5.3 %
same,Absorbance Increase,"[1]; Urate 0.5 mg/dL, 10 min. after H2O2, 460 nm, mean ± s.e.m., n 5",0.034 ± 0.017
same,% Inhibition,"[1]; Urate 0.5 mg/dL, 10 min. after H2O2, mean ± s.e.m., n 5",26.5 ± 5.5 %
same,Absorbance Increase,"[1]; Urate 6.0 mg/dL, 5 min. after H2O2, 460 nm, pH 7.4 saline, 25-28° Celsius, mean ± s.e.m., n 5",0.012 ± 0.003
same,% Inhibition,"[1]; Urate 6.0 mg/dL, 5 min. after H2O2, mean ± s.e.m., n 5",75.3 ± 4.8 %
same,Absorbance Increase,"[1]; Urate 6.0 mg/dL, 10 min. after H2O2, 460 nm, mean ± s.e.m., n 5",0.014 ± 0.003
same,% Inhibition,"[1]; Urate 6.0 mg/dL, 10 min. after H2O2, mean ± s.e.m., n 5",70.9 ± 4.5 %
same,% Inhibition,[2]; [8],50.7 ± 7.56 %
same,Absorbance Increase,[2]; [8],0.028 ± 0.004
same,% Inhibition,[2]; [9],38.8 ± 3.25 %
same,Absorbance Increase,[2]; [9],0.052 ± 0.009
same,Absorbance Increase,"[2]; Urate 6.0 mg/dL, 5 min. after H2O2, mean ± s.e.m., n 4",0.006 ± 0.002
same,% Inhibition,"[2]; Urate 6.0 mg/dL, 5 min. after H2O2, n 4",90.6 ± 0.90 %
same,% Inhibition,[2]; [10],80.3 ± 3.54 %
same,Absorbance Increase,[2]; [10],0.016 ± 0.005
same,solubility in water,[3],difficulty soluble in water
same,tolerability of intravenous administration,[5],without untoward effects
same,elevating human serum uric acid levels when given orally,[4],ineffective
